Measured values taken from the supplement of paper PMC10307832.

Assays:
Assay in all cases: relative viability (nuclei count vs DMSO), 5 days (fraction); higher = more cells survive
COR-L 105 = tested on: COR-L 105
Method in brief: (§1)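 Values are medians from duplicate plates. Each reflects relative viability, defined as the nuclei count of treated wells over that of vehicle wells. Lung cancer cell lines in 1536-well plates were pin-tool dosed one day after seeding with one drug alone or with a fixed anchor-drug dose plus five library-drug doses (not always all listed) in √10 steps, then fixed, stained and imaged at 4× after 5 days.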

LCLC-103H = tested on: LCLC-103H
Method in brief: as §1

LK-2 = tested on: LK-2
Method in brief: as §1

NCI-H1355 = tested on: NCI-H1355
Method in brief: as §1

NCI-H1623 = tested on: NCI-H1623
Method in brief: as §1

NCI-H1648 = tested on: NCI-H1648
Method in brief: as §1

NCI-H1666 = tested on: NCI-H1666
Method in brief: as §1

NCI-H520 = tested on: NCI-H520
Method in brief: as §1

NCI-H522 = tested on: NCI-H522
Method in brief: as §1

CC(=O)O[C@@]12CO[C@@H]1C[C@H](O)[C@@]1(C)C(=O)[C@H](O)C3=C(C)[C@@H](OC(=O)[C@H](O)[C@@H](NC(=O)OC(C)(C)C)c4ccccc4)C[C@@](O)([C@@H](OC(=O)c4ccccc4)[C@H]21)C3(C)C [Docetaxel] + COc1cccc2cc(-c3nc([C@H]4CC[C@H](C(=O)O)CC4)n4ncnc(N)c34)[nH]c12 [OSI-027] (partner 0.5 µM)
relative viability (COR-L 105; first compound 0.0002 µM): 0.569 | relative viability (COR-L 105; first compound 0.000632 µM): 0.654 | relative viability (COR-L 105; first compound 0.002 µM): 0.408 | relative viability (COR-L 105; first compound 0.006325 µM): 0.277 | relative viability (COR-L 105; first compound 0.02 µM): 0.289 | relative viability (LCLC-103H; first compound 0.0002 µM): 0.394 | relative viability (LCLC-103H; first compound 0.000632 µM): 0.528 | relative viability (LCLC-103H; first compound 0.002 µM): 0.343 | relative viability (LCLC-103H; first compound 0.006325 µM): 0.414 | relative viability (LCLC-103H; first compound 0.02 µM): 0.264 | relative viability (LK-2; first compound 0.0002 µM): 0.208 | relative viability (LK-2; first compound 0.000632 µM): 0.186 | relative viability (LK-2; first compound 0.002 µM): 0.159 | relative viability (LK-2; first compound 0.006325 µM): 0.171 | relative viability (LK-2; first compound 0.02 µM): 0.153 | relative viability (NCI-H1355; first compound 0.0002 µM): 0.431 | relative viability (NCI-H1355; first compound 0.000632 µM): 0.386 | relative viability (NCI-H1355; first compound 0.002 µM): 0.252 | relative viability (NCI-H1355; first compound 0.006325 µM): 0.275 | relative viability (NCI-H1355; first compound 0.02 µM): 0.198 | relative viability (NCI-H1623; first compound 0.0002 µM): 0.391 | relative viability (NCI-H1623; first compound 0.000632 µM): 0.438 | relative viability (NCI-H1623; first compound 0.002 µM): 0.339 | relative viability (NCI-H1623; first compound 0.006325 µM): 0.335 | relative viability (NCI-H1623; first compound 0.02 µM): 0.298 | relative viability (NCI-H1648; first compound 0.0002 µM): 0.28 | relative viability (NCI-H1648; first compound 0.000632 µM): 0.267 | relative viability (NCI-H1648; first compound 0.002 µM): 0.232 | relative viability (NCI-H1648; first compound 0.006325 µM): 0.218 | relative viability (NCI-H1648; first compound 0.02 µM): 0.248 | relative viability (NCI-H1666; first compound 0.0002 µM): 0.739 | relative viability (NCI-H1666; first compound 0.000632 µM): 0.641 | relative viability (NCI-H1666; first compound 0.002 µM): 0.574 | relative viability (NCI-H1666; first compound 0.006325 µM): 0.491 | relative viability (NCI-H1666; first compound 0.02 µM): 0.322 | relative viability (NCI-H520; first compound 0.0002 µM): 0.209 | relative viability (NCI-H520; first compound 0.000632 µM): 0.259 | relative viability (NCI-H520; first compound 0.002 µM): 0.276 | relative viability (NCI-H520; first compound 0.006325 µM): 0.257 | relative viability (NCI-H520; first compound 0.02 µM): 0.153 | relative viability (NCI-H522; first compound 0.0002 µM): 0.666 | relative viability (NCI-H522; first compound 0.000632 µM): 0.657 | relative viability (NCI-H522; first compound 0.002 µM): 0.541 | relative viability (NCI-H522; first compound 0.006325 µM): 0.496 | relative viability (NCI-H522; first compound 0.02 µM): 0.426

COc1cc2nccc(Oc3ccc(NC(=O)Nc4cc(C)on4)c(Cl)c3)c2cc1OC [Tivozanib] + COc1cccc2cc(-c3nc([C@H]4CC[C@H](C(=O)O)CC4)n4ncnc(N)c34)[nH]c12 [OSI-027] (partner 0.5 µM)
relative viability (COR-L 105; first compound 0.005 µM): 0.707 | relative viability (COR-L 105; first compound 0.01581 µM): 0.748 | relative viability (COR-L 105; first compound 0.05 µM): 0.719 | relative viability (COR-L 105; first compound 0.1581 µM): 0.525 | relative viability (COR-L 105; first compound 0.5 µM): 0.762 | relative viability (LCLC-103H; first compound 0.005 µM): 0.475 | relative viability (LCLC-103H; first compound 0.01581 µM): 0.481 | relative viability (LCLC-103H; first compound 0.05 µM): 0.423 | relative viability (LCLC-103H; first compound 0.1581 µM): 0.369 | relative viability (LCLC-103H; first compound 0.5 µM): 0.498 | relative viability (LK-2; first compound 0.005 µM): 0.223 | relative viability (LK-2; first compound 0.01581 µM): 0.196 | relative viability (LK-2; first compound 0.05 µM): 0.244 | relative viability (LK-2; first compound 0.1581 µM): 0.172 | relative viability (LK-2; first compound 0.5 µM): 0.194 | relative viability (NCI-H1355; first compound 0.005 µM): 0.419 | relative viability (NCI-H1355; first compound 0.01581 µM): 0.48 | relative viability (NCI-H1355; first compound 0.05 µM): 0.475 | relative viability (NCI-H1355; first compound 0.1581 µM): 0.273 | relative viability (NCI-H1355; first compound 0.5 µM): 0.343 | relative viability (NCI-H1623; first compound 0.005 µM): 0.414 | relative viability (NCI-H1623; first compound 0.01581 µM): 0.445 | relative viability (NCI-H1623; first compound 0.05 µM): 0.431 | relative viability (NCI-H1623; first compound 0.1581 µM): 0.407 | relative viability (NCI-H1623; first compound 0.5 µM): 0.459 | relative viability (NCI-H1648; first compound 0.005 µM): 0.255 | relative viability (NCI-H1648; first compound 0.01581 µM): 0.25 | relative viability (NCI-H1648; first compound 0.05 µM): 0.221 | relative viability (NCI-H1648; first compound 0.1581 µM): 0.218 | relative viability (NCI-H1648; first compound 0.5 µM): 0.258 | relative viability (NCI-H1666; first compound 0.005 µM): 0.927 | relative viability (NCI-H1666; first compound 0.01581 µM): 0.856 | relative viability (NCI-H1666; first compound 0.05 µM): 0.843 | relative viability (NCI-H1666; first compound 0.1581 µM): 0.799 | relative viability (NCI-H1666; first compound 0.5 µM): 0.807 | relative viability (NCI-H520; first compound 0.005 µM): 0.244 | relative viability (NCI-H520; first compound 0.01581 µM): 0.249 | relative viability (NCI-H520; first compound 0.05 µM): 0.267 | relative viability (NCI-H520; first compound 0.1581 µM): 0.167 | relative viability (NCI-H520; first compound 0.5 µM): 0.313 | relative viability (NCI-H522; first compound 0.005 µM): 0.722 | relative viability (NCI-H522; first compound 0.01581 µM): 0.788 | relative viability (NCI-H522; first compound 0.05 µM): 0.783 | relative viability (NCI-H522; first compound 0.1581 µM): 0.677 | relative viability (NCI-H522; first compound 0.5 µM): 0.604
